Assay results taken from US9421254B2, “Immunostimulatory combinations of TLR ligands and methods of use” (The United States of America, as represented by the …, priority 2007, dated 2016).
“Also recorded” adds a separate entry of the source.

Columns and labels:
BMDCs [1] = test: Intracellular IL-12 and CD86 on BMDCs treated in vitro with TLR ligands (flow cytometry); conditions: for inducing IL-12 production from DCs / upregulation of CD86 expression: TLR4 ligand alone; for inducing IL-12 production from DCs: relative to MALP-2+PolyI:C and PolyI:C+CpG; for upregulation of CD86 expression: relative to PolyI:C, FIG. 9B; for synergy with PolyI:C in IL-12 production: TLR2 ligand combined with PolyI:C
purified T cells = test: Purified T cells cultured with recombinant cytokines/chemokines (CD69); type: cell-based, mouse; conditions: added to MyD88-dependent cytokines; FIG. 12B
Description: Panel (A) is a graph showing the results when BMDC pretreated with MALP-2+PolyI:C were cultured with purified T cells in the presence of neutralizing antibodies against cytokines as indicated. CD69+ T cells were measured 24 hours later. Panel (B) is a graph showing the results when purified T cells were culture in the presence of IL-12 (25 ng/ml), TNFa (10 ng/ml), MIP-1a (50 ng/ml) and IP-10 (25 ng/ml) singly or in combinations as indicated. CD69+CD8+ T cells were measured after 24 hours of treatment.
As there are several MyD88-dependent inflammatory cytokines that are produced downstream of the JNK/c-Jun pathway, blocking one of these cytokines may not be expected to abolish the synergy effect.

BMDCs [2] = test: Secreted cytokines/chemokines from BMDCs treated in vitro with TLR ligands (multiplex); type: cell-based, mouse; conditions: FIG. 3D
[3] = tested on: popliteal LN MHC class II+CD11c+ DCs; test: DC activation in popliteal LNs after footpad immunization with TLR ligands; type: in vivo, mice; conditions: FIG. 5D
Description: Mice were immunized in the footpads with MALP-2, PolyI:C and CpG singly or pairwise. Paired popliteal LN cells were isolated 36 hours later for assay by flow cytometry. […] Panel (D) is a graph showing CD86 expression on DCs.
If this hypothesis were true, it may be expected that use of synergistic combinations of TLRs as adjuvant would result in similar activation of DCs in vivo. To test this hypothesis, DCs were isolated from popliteal LNs following footpad immunization with TLR ligands and examined ex vivo. […] Therefore, the interplay of TLRs in activating DCs in vivo is nonrandom and mediated through potentiating MyD88-dependent cytokines that could account for the activation of specific T cells.

Row | Compound | inducing IL-12 production from DCs (BMDCs [1]) | upregulation of CD86 expression (BMDCs [1]) | synergy with PolyI:C in IL-12 production (BMDCs [1]; FIG. 9A) | other results
1 | CCCCCCCCCCCC(=O)CC(=O)N[C@H](COCC[C@@H](CCCCCCC)OC(=O)CCCCCCCCCCC)COP(=O)(O)OCCNC(=O)NCCOP(=O)(O)OC[C@@H](COCC[C@@H](CCCCCCC)OC(=O)CCCCCCCCCCC)NC(=O)CC(=O)CCCCCCCCCCC [E6020] | equivalent | efficacy equivalent to PolyI:C | – | –
2 | IP-10: Recombinant IP-10 protein purchased from Peprotech | – | – | – | enhancement of the CD69 response already induced by the MyD88-dependent cytokines (purified T cells): did not significantly enhance
3 | monophosphoryl lipid A [MPL] | equivalent | efficacy equivalent to PolyI:C | – | –
4 | polyinosine-polycytidylic acid [PolyI:C] | – | – | – | IP-10 production by DCs (BMDCs [2]; ligand alone): produce IP-10; expression of CD86 by LN DCs ([3]; ligand alone): upregulated; IL-12 production on addition to the TLR4 stimulation (BMDCs [1]; FIG. 9A): did not further enhance; CD86 expression on DCs (BMDCs [1]; ligand alone, FIG. 3C): upregulate CD86 expression
5 | Lipoteichoic acids [LTA] | – | – | could also act synergistically and did | –
6 | PAM3CSK4 | – | – | could not; also recorded: did not synergize | –
7 | lipopolysaccharide [LPS] | equivalent | efficacy equivalent to PolyI:C | – | –
8 | macrophage activating lipoprotein (MALP-2) | – | – | did | further increase in IP-10 production compared to PolyI:C alone (BMDCs [2]; ligand added to PolyI:C): did not result in a further increase; increase in CD86 by LN DCs when ligand included with PolyI:C [3]: no significant increases; further increase in CD86 expression compared to PolyI:C alone (BMDCs [1]; ligand added to PolyI:C, FIG. 3C): did not result in a further increase
